Laboratory results: ChEMBL document CHEMBL5380835, “Discovery of Clinically Used Octenidine as NRAS Repressor That Effectively Inhibits NRAS-Mutant Melanoma” (J Med Chem, 2023)
Activity calls are given as the source filed them. No cut-off for these calls is given here.

Experiments:
SK-MEL-2 [1] = experiment: Induction of cell cycle arrest in human SK-MEL-2 cells assessed as accumulation at G2/M phase at 1.5 uM measured after 48 hrs by PI staining based analysis; format: functional
HEK293 = experiment: Binding affinity to NRAS RNA G-quadruplex 5'-r(UGUGGGAGGGGCGGGUCUGGG)-3' (unknown origin) transfected in HEK293 cells assessed as decrease in NRAS […] upto 1.5 uM incubated for 24 hrs by Dual luciferase reporter assay; format: functional, cell-based
SK-MEL-2 [2] = experiment: Cytotoxicity against human SK-MEL-2 cells assessed as inhibition of cell viability treated for 48 hrs measured after 48 hrs; format: functional, cell-based; details: SK-MEL-2, 48 h
[3] = Binding affinity to NRAS RNA G-quadruplex 5'-r(UGUGGGAGGGGCGGGUCUGGG)-3' (unknown origin) by TO displacement assay
SK-MEL-2 [4] = experiment: Downregulation of phosphorylated ERK in human SK-MEL-2 cells expressing NRAS mutant incubated for 48 hrs by Western blot analysis; format: functional, cell-based; details: dose <= 1.5 µM
SK-MEL-2 [5] = experiment: Downregulation of phosphorylated ERK in human SK-MEL-2 cells expressing NRAS mutant at 1.5 uM by Western blot analysis; format: functional, cell-based; details: time <= 48.0 hrs, TDE = time-dependent effect
SK-MEL-2 [6] = experiment: Antiproliferative activity against human SK-MEL-2 cells assessed as cell growth inhibition incubated for 12 hrs by EdU assay; format: functional, cell-based; details: SK-MEL-2, 12 h
SK-MEL-2 [7] = experiment: Antitumor activity against human SK-MEL-2 cells xenografted in BALB/c nude mouse assessed as tumor growth inhibition at 1 mg/kg/day, ip administered for 30 days relative to control; format: functional; details: SK-MEL-2, 720 h, time 30 day, read-out: TGI
SK-MEL-2 [8] = experiment: Cytotoxicity against human SK-MEL-2 cells expressing Tet-on NRAS Q61R assessed as cell growth inhibition in presence of doxycycline; format: functional, cell-based
[9] = Toxicity in BALB/c mouse xenografted with human SK-MEL-2 cells assessed as change in body weight at 1 mg/kg/day, ip administered for 30 days; format: organism-based; details: in vivo, 720 h, time 30 day
[10] = Toxicity in BALB/c mouse xenografted with human SK-MEL-2 cells assessed as change in viscera pattern at 1 mg/kg/day, ip administered for 30 days by HE staining based analysis; format: organism-based; details: in vivo, 720 h, time 30 day
SK-MEL-2 [11] = experiment: Cytotoxicity against human SK-MEL-2 cells upto 10 uM in presence of 3mA; format: functional, cell-based
SK-MEL-2 [12] = experiment: Induction of apoptosis in human SK-MEL-2 cells assessed as late apoptotic cells at 1.5 uM measured after 24 hrs by PI/FITC Annexin V staining based flow cytometry; format: functional, cell-based
SK-MEL-2 [13] = experiment: Suppression of NRAS protein translation in human SK-MEL-2 cells upto 1.5 uM incubated for 48 hrs by Western blot analysis; format: functional, cell-based
SK-MEL-2 [14] = experiment: Induction of cell cycle arrest in human SK-MEL-2 cells assessed as accumulation at S phase at 1.5 uM measured after 24 hrs by PI staining based analysis; format: functional
SK-MEL-2 [15] = experiment: Downregulation of phosphorylated AKT in human SK-MEL-2 cells expressing NRAS mutant incubated for 48 hrs by Western blot analysis; format: functional, cell-based; details: dose <= 1.5 µM
SK-MEL-2 [16] = experiment: Downregulation of NRAS protein translation in human SK-MEL-2 cells incubated for 24 hrs by Western blot analysis; format: functional, cell-based; details: dose <= 1.5 µM
SK-MEL-2 [17] = experiment: Antiproliferative activity against human SK-MEL-2 cells assessed as cell growth inhibition incubated for 48 hrs by EdU assay; format: functional, cell-based; details: SK-MEL-2, 48 h
SK-MEL-2 [18] = experiment: Downregulation of phosphorylated mTOR in human SK-MEL-2 cells expressing NRAS mutant incubated for 48 hrs by Western blot analysis; format: functional, cell-based; details: dose <= 1.5 µM
SK-MEL-2 [19] = experiment: Cytotoxicity against human SK-MEL-2 cells assessed as inhibition of cell viability treated for 72 hrs measured after 24 hrs; format: functional, cell-based
SK-MEL-2 [20] = experiment: Cytotoxicity against human SK-MEL-2 cells assessed as inhibition of cell viability treated for 72 hrs measured after 72 hrs; format: functional, cell-based; details: SK-MEL-2, 72 h
SK-MEL-2 [21] = experiment: Cytotoxicity against human SK-MEL-2 cells expressing Tet-on NRAS Q61R assessed as cell growth inhibition; format: functional, cell-based
SK-MEL-2 [22] = experiment: Antitumor activity against human SK-MEL-2 cells xenografted in BALB/c nude mouse assessed as T/C ratio at 1 mg/kg/day, ip administered for 30 days relative to control; format: functional; details: time 30 day
SK-MEL-2 [23] = experiment: Cytotoxicity against human SK-MEL-2 cells overexpressing Tet-on NRAS Q61R assessed as cell growth inhibition; format: functional, cell-based
[24] = Binding affinity to NRAS RNA G-quadruplex 5'-r(UGUGGGAGGGGCGGGUCUGGG)-3' (unknown origin) assessed as decrease in TO fluorescence at 0.25 uM by TO displacement assay
RNA [UNDEFINED MUTATION] = experiment: Binding affinity to NRAS RNA mutant G-quadruplex 5'-r(UGUAAGAGAAGCGAGUCUGAG)-3' (unknown origin) by TO displacement assay; format: nucleic-acid assay
SK-MEL-2 [25] = experiment: Downregulation of NRAS expression in human SK-MEL-2 cells xenografted in BALB/c nude mouse at 1 mg/kg/day, ip administered for 30 days by IHC analysis; format: functional, organism-based; details: time 30.0 day
SK-MEL-2 [26] = experiment: Downregulation of phosphorylated MEK in human SK-MEL-2 cells expressing NRAS mutant incubated for 48 hrs by Western blot analysis; format: functional, cell-based; details: dose <= 1.5 µM
RNA = experiment: Binding affinity to total RNA (unknown origin) by TO displacement assay; format: nucleic-acid assay
SK-MEL-2 [27] = experiment: Cytotoxicity against human SK-MEL-2 cells expressing NRAS mutant assessed as cell growth inhibition upto 50 uM measured for 12 to 96 hrs by MTT assay; format: functional, cell-based; details: time 12-96 hrs
[28] = Binding affinity to 3'-FAM-labeled to NRAS RNA G-quadruplex 5'-r(UGUGGGAGGGGCGGGUCUGGG)-3' (unknown origin) assessed as dissociation constant by fluorescence quenching assay
SK-MEL-2 [29] = experiment: Antitumor activity against human SK-MEL-2 cells xenografted in BALB/c nude mouse assessed as reduction in tumor weight at 1 mg/kg/day, ip administered for 30 days by electronic caliper method; format: functional, organism-based; details: time 30.0 day
SK-MEL-2 [30] = experiment: Cytotoxicity against human SK-MEL-2 cells assessed as inhibition of cell viability treated for 48 hrs measured after 24 hrs; format: functional, cell-based
SK-MEL-2 [31] = experiment: Cytotoxicity against human SK-MEL-2 cells expressing NRAS mutant assessed as cell growth inhibition incubated for 48 hrs by MTT assay; format: functional, cell-based; details: SK-MEL-2, 48 h
[32] = Stabilization of NRAS RNA G-quadruplex 5'-r(UGUGGGAGGGGCGGGUCUGGG)-3' (unknown origin) at 10 uM
[33] = Disruption of DHX36/NRAS RNA G-quadruplex 5'-r(UGUGGGAGGGGCGGGUCUGGG)-3' (unknown origin) using RNA substrate incubated for 1 hr by ELISA method
SK-MEL-2 [34] = experiment: Antitumor activity against human SK-MEL-2 cells xenografted in BALB/c nude mouse assessed as tumor growth inhibition at 1 mg/kg/day, ip by electronic caliper method; format: functional, organism-based; details: time 30.0 day, TDE = time-dependent effect
SK-MEL-2 [35] = experiment: Cytotoxicity against human SK-MEL-2 cells upto 10 uM in presence of CQ; format: functional, cell-based
[36] = Binding affinity to 5'-FAM-labeled to NRAS RNA G-quadruplex 5'-r(UGUGGGAGGGGCGGGUCUGGG)-3' (unknown origin) assessed as dissociation constant by fluorescence quenching assay
SK-MEL-2 [37] = experiment: Cytotoxicity against human SK-MEL-2 cells overexpressing Tet-on NRAS Q61R assessed as cell growth inhibition in presence of doxycycline; format: functional, cell-based
SK-MEL-2 [38] = experiment: Downregulation of KRAS protein level in human SK-MEL-2 cells upto 1.5 uM incubated for 48 hrs by Western blot analysis; format: functional, cell-based
SK-MEL-2 [39] = experiment: Antiproliferative activity against human SK-MEL-2 cells assessed as inhibition of cell survival upto 50 uM incubated for 24 to 96 hrs by MTT assay; format: functional, cell-based; details: time 24-96 hrs
SK-MEL-2 [40] = experiment: Disruption of DHX36/NRAS RNA G-quadruplex 5'-r(UGUGGGAGGGGCGGGUCUGGG)-3' in human SK-MEL-2 cells at 1.5 uM incubated for 24 hrs by RNA Immunoprecipitation assay; format: cell-based
SK-MEL-2 [41] = experiment: Downregulation of phosphorylated mTOR in human SK-MEL-2 cells expressing NRAS mutant at 1.5 uM by Western blot analysis; format: functional, cell-based; details: time <= 48.0 hrs, TDE = time-dependent effect
SK-MEL-2 [42] = experiment: Antiproliferative activity against human SK-MEL-2 cells assessed as inhibition of colony formation at 1.5 uM measured after 10 days by crystal violet staining based assay relative to control; format: functional; details: SK-MEL-2, 240 h, time 10 day
SK-MEL-2 [43] = experiment: Antiproliferative activity against human SK-MEL-2 cells assessed as cell growth inhibition incubated for 24 hrs by EdU assay; format: functional, cell-based; details: SK-MEL-2, 24 h
SK-MEL-2 [44] = experiment: Cytotoxicity against human SK-MEL-2 cells assessed as cell growth inhibition incubated for 24 hrs by MTT assay; format: functional, cell-based; details: SK-MEL-2, 24 h
SK-MEL-2 [45] = experiment: Induction of autophagy in human SK-MEL-2 cells assessed as […] at 1.5 uM measured upto 48 hrs by Western bot analysis; format: functional, cell-based
DNA = experiment: Binding affinity to total DNA (unknown origin) by TO displacement assay; format: nucleic-acid assay
SK-MEL-2 [46] = experiment: Antitumor activity against human SK-MEL-2 cells xenografted in BALB/c nude mouse assessed as reduction in tumor weight at 10 mg/kg/day, ip administered for 30 days by electronic caliper method; format: functional, organism-based; details: time 30.0 day
SK-MEL-2 [47] = experiment: Antitumor activity against human SK-MEL-2 cells xenografted in BALB/c nude mouse assessed as tumor growth inhibition at 10 mg/kg/day, ip by electronic caliper method; format: functional, organism-based; details: time 30.0 day, TDE = time-dependent effect
SK-MEL-2 [48] = experiment: Antitumor activity against human SK-MEL-2 cells xenografted in BALB/c nude mouse assessed as tumor growth inhibition at 10 mg/kg/day, ip administered for 30 days relative to control; format: functional; details: SK-MEL-2, 720 h, time 30 day, read-out: TGI
SK-MEL-2 [49] = experiment: Antitumor activity against human SK-MEL-2 cells xenografted in BALB/c nude mouse assessed as T/C ratio at 10 mg/kg/day, ip administered for 30 days relative to control; format: functional; details: time 30 day

CCCCCCCCN=c1ccn(CCCCCCCCCCn2ccc(=NCCCCCCCC)cc2)cc1.Cl.Cl [OCTENIDINE HYDROCHLORIDE]
Activity (SK-MEL-2 [1]): Active | Activity (HEK293): Active | IC50 (SK-MEL-2 [2]): 2100 nM | EC50 [3]: 1600 nM | Activity (SK-MEL-2 [4]): Dose-Dependent Effect | Activity (SK-MEL-2 [5]): Tde | IC50 (SK-MEL-2 [6]): 2050 nM | inhibition in vivo at 1 mg/kg/day (SK-MEL-2 [7]): 52.4% | IC50 (SK-MEL-2 [8]): 12.4 µM | Activity [9]: Non-Toxic | Activity [10]: Non-Toxic | Activity (SK-MEL-2 [11]): Active | Activity (SK-MEL-2 [12]): Active | Activity (SK-MEL-2 [13]): Active | Activity (SK-MEL-2 [14]): Active | Activity (SK-MEL-2 [15]): Dose-Dependent Effect | Activity (SK-MEL-2 [16]): Dose-Dependent Effect | IC50 (SK-MEL-2 [17]): 490 nM | Activity (SK-MEL-2 [18]): Dose-Dependent Effect | IC50 (SK-MEL-2 [19]): 480 nM | IC50 (SK-MEL-2 [20]): 460 nM | IC50 (SK-MEL-2 [21]): 6.3 µM | T/C (SK-MEL-2 [22]): 38.5% | Activity (SK-MEL-2 [23]): Active | Activity [24]: Active | Activity (RNA [UNDEFINED MUTATION]): inactive | Activity (SK-MEL-2 [25]): Active | Activity (SK-MEL-2 [26]): Dose-Dependent Effect | Activity (RNA): Active | inhibition (SK-MEL-2 [27]): Active | Kd [28]: 230 nM | Activity (SK-MEL-2 [29]): Active | IC50 (SK-MEL-2 [30]): 2110 nM | IC50 (SK-MEL-2 [31]): 1340 nM | Activity [32]: inactive | IC50 [33]: 2400 nM | Activity (SK-MEL-2 [34]): Tde | Activity (SK-MEL-2 [35]): Active | Kd [36]: 490 nM | Activity (SK-MEL-2 [37]): Active | Activity (SK-MEL-2 [38]): inactive | inhibition (SK-MEL-2 [39]): Active | Activity (SK-MEL-2 [40]): Active | Activity (SK-MEL-2 [41]): Tde | inhibition at 1.5 µM (SK-MEL-2 [42]): 100% | IC50 (SK-MEL-2 [43]): 1080 nM | IC50 (SK-MEL-2 [44]): 2340 nM | Activity (SK-MEL-2 [45]): Active | Activity (DNA): inactive

CN(C)/N=N/c1[nH]cnc1C(N)=O [DACARBAZINE]
Activity (SK-MEL-2 [46]): Active | Activity (SK-MEL-2 [47]): Tde | inhibition in vivo at 10 mg/kg/day (SK-MEL-2 [48]): 57.7% | T/C (SK-MEL-2 [49]): 28.9%
